Results as given in US5424308A, “Condensed pyrazole 3-oxo-propanenitrile derivatives” (Farmitalia Carlo Erba S.r.l., priority 1988, dated 1995).

Columns and labels:
Pseudomonas aeruginosa = Pseudomonas aeruginosa infection in Cyclophosphamide immunosuppressed mice; type: in vivo; details: for % survival: 10 mg/kg/i.p., 8 LD50 intravenously, 10 days after bacterial challenge; for effectiveness against Pseudomonas aeruginosa infection: Cyclophosphamide immunosuppressed mice, in words
Experimental: The experimental procedure to evaluate this activity is as follows: mice are immunosuppressed 4 days before the bacterial challenge by a single dose of 200 mg/kg of Cyclophosphamide given intraperitoneally. Tested compounds are administered i.p. on days +1 and +3 relative to Cyclophosphamide administration. Clinically isolated Pseudomonas aeruginosa is administered intravenously in amount of 8 LD50. Host resistance to infection is estimated by the number of mice surviving 10 days after the bacterial challenge.

TU-5 tumor cells = assay: Macrophage cytotoxic activity towards TU-5 tumor cells (peritoneal macrophages of i.p. treated mice, MTT); type: cell-based; details: Effector:Target 5:1; 10 mg/kg/i.p.; 7 days before cell collection; 48 hours incubation
Experimental: The experimental procedure to evaluate this activity is as follows: groups of 4 mice are treated i.p. with the tested compounds and then, seven days later, peritoneal cells are collected and plated for 2 hours at 37° C. After this period the walls are washed to eliminate the non adherent cells, tumor target cells are then added and the incubation prolonged for 48 hours. At the end of this period the target cells viability is evaluated by the MTT colorimetric method (Abstracts of VIII European Immunology Meeting, Zagreb, 1987, pag 94 n°2105) based on the optical density (OD) evaluation at 570 nm.
Percent specific cytotoxicity (%C) is calculated as % inhibition of TU-5 tumor cells (Immunology, 1984, 166, 251) growth using the following formula: [formula]
The following Table I summarizes the immunostimulating activity data of some representative compounds of the invention, obtained according to hereabove experimental procedure, towards TU-5 tumor cells.

N#CC(C(=O)Nc1ccccc1)C(=O)c1nn(-c2ccccc2)c2c1Cc1ccccc1-2 (stereo not drawn) [FCE 25276, 2-cyano-3-(1,4-dihydro-1-phenyl-indeno[1,2-c]pyrazol-3-yl) -3-oxo-N-phenyl-propanamide]
% survival (Pseudomonas aeruginosa): 90% | effectiveness against Pseudomonas aeruginosa infection (Pseudomonas aeruginosa): strongly effective | Macrophage cytotoxic activity (% inhibition of TU-5 growth) (TU-5 tumor cells): 93%

N#CC(C(=O)Nc1ccc(F)cc1)C(=O)c1nn(-c2ccccc2)c2c1Cc1ccccc1-2 (stereo not drawn) [FCE 25648, 2-cyano-N-(4-fluoro-phenyl)-3-(1,4-dihydro-1-phenyl-indeno[1,2-c]pyrazol-3-yl)-3-oxo-propanamide]
% survival (Pseudomonas aeruginosa): 90% | effectiveness against Pseudomonas aeruginosa infection (Pseudomonas aeruginosa): strongly effective | Macrophage cytotoxic activity (% inhibition of TU-5 growth) (TU-5 tumor cells): 77%

N#CC(C(=O)Nc1cccc(Cl)c1)C(=O)c1nn(-c2ccccc2)c2c1Cc1ccccc1-2 (stereo not drawn) [FCE 25651, N-(3-chloro-phenyl)-2-cyano-3-(1,4-dihydro-1-phenyl-indeno[1,2-c]pyrazol-3-yl)-3-oxo-propanamide]
% survival (Pseudomonas aeruginosa): 90% | effectiveness against Pseudomonas aeruginosa infection (Pseudomonas aeruginosa): strongly effective | Macrophage cytotoxic activity (% inhibition of TU-5 growth) (TU-5 tumor cells): 79%

N#CC(C(=O)Nc1ccccc1)C(=O)c1nn(-c2ccccc2)c2c1sc1ccccc12 (stereo not drawn) [FCE 26047, 2-cyano-3-oxo-3-(1-phenyl-1H-benzothieno[3,2-c]pyrazol-3-yl)-N-phenyl-propanamide]
% survival (Pseudomonas aeruginosa): 70% | effectiveness against Pseudomonas aeruginosa infection (Pseudomonas aeruginosa): strongly effective | Macrophage cytotoxic activity (% inhibition of TU-5 growth) (TU-5 tumor cells): 82%
